The source of these data is patent publication US11655235B2, “Pyrrolidine and piperidine compounds” (YUHAN CORPORATION, priority 2019, dated 2023).

Assay [1] deals with DPP4 (Homo sapiens, UniProt P27487). Put plainly: DPP4 inhibition, fluorogenic substrate H-Gly-Pro-AMC. The format is biochemical. On the set-up: purchased R&D Systems. The note with it: for IC50: recombinant human DPP4; for inhibition at 1 µM: read-out: hDPP4 inhibition % at 1 μM. On the procedure: The compounds according to the present technology were evaluated in terms of the inhibitory effect on the activity of dipeptidyl peptidases including FAP by using a substrate producing fluorescent substances upon enzymatic decomposition. The test was conducted at 25° C. to get a final reaction volume of 100 μL in a 96 black well plate. […] Briefly, the test compounds were dissolved in dimethyl sulfoxide (DMSO) at a concentration of 20 mM and then subjected to serial dilution, thereby creating an 8 point curve. As for the control group, a 6 point curve created by serial dilution of Talabostat in the same buffer solution was used. Fluorescence intensity was measured using a microplate reader (Flexstation3, Molecular Devices) under the wavelength condition exciting at 380 nm and reading the emission at 460 nm. The inhibitory effect of the test compounds was measured as a decrease (%) in the signal rate as compared to the control group without any inhibitor. Data was fixed to a logistic model with four variables and IC50 value was calculated using GraphPad Prism program. As for recombinant human DPP4 (R&D Systems), 25 mM tris (pH 8.0) buffer as a buffer solution and H-Gly-Pro-AMC (Bachem) as a substrate were used. As for recombinant human DPP7 (R&D Systems), 25 mM MES (pH 6.0) buffer as a buffer solution and Lys-Pro-AMC (Bachem) as a substrate were used. As for recombinant human DPP8 (PBS Bioscience), as a buffer solution, a 10 mM tris (pH 7.4) buffer comprising 10 mM of magnesium chloride and 0.05% of Tween 20, and Z-Ala-Pro-AMC (BPS Bioscience) as a substrate were used. As for recombinant human DPP9 (R&D Systems), a 25 mM tris (pH 8.0) buffer as a buffer solution and H-Gly-Pro-AMC (Bachem) as a substrate were used. As for recombinant human PREP (R&D System), as a buffer solution, a 25 mM tris (pH 7.5) buffer comprising 250 mM sodium chloride and 2.5 mM DTT (Dithiolthreitol), and Z-Gly-Pro-AMC (Bachem) as a substrate were used. The evaluation was made by using 10 ng of DPP4, PDD7, and PREP, 20 ng of DPP8, and 50 ng of DPP9 based on the final reaction. In the evaluation of DPP4, the test compounds were subjected to serial dilution in a buffer under the condition containing up to 0.1% of DMSO. In the evaluation of DPP7, DPP8, DPP9, and PREP, the test compounds were subjected to serial dilution in each buffer under the condition containing up to 0.5% of DMSO.

Assay [2] has as its target T1, Recombinant human FAP (Homo sapiens, UniProt Q12884).
T1 construct: purchased R&D systems
T1 sequence (Q12884 1-760): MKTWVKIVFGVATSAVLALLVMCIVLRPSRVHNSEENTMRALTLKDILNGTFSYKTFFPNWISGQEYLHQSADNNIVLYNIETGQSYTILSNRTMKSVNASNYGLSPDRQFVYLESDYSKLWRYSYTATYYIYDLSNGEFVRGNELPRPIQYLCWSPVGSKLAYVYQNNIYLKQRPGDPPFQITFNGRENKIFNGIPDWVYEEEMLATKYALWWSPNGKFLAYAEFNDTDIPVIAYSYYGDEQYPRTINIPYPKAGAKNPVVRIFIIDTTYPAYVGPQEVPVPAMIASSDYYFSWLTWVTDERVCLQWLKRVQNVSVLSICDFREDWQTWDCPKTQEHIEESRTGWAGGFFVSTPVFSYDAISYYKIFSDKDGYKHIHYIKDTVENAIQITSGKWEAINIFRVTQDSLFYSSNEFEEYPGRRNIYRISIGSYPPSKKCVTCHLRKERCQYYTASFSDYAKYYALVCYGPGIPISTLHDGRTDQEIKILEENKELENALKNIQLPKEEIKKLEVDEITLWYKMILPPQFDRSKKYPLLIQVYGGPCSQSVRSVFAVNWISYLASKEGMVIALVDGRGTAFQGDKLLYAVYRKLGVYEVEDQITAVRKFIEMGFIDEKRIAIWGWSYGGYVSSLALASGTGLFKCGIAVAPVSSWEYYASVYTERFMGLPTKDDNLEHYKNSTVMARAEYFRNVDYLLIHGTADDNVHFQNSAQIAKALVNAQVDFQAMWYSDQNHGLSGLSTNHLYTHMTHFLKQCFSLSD
Put plainly: FAP inhibition, fluorogenic substrate Z-Gly-Pro-AMC. The note with it: for inhibition at 1 µM: read-out: hFAP inhibition % at 1 μM. The format is biochemical. On the procedure:
The compounds according to the present technology were evaluated in terms of the inhibitory effect on the activity of dipeptidyl peptidases including FAP by using a substrate producing fluorescent substances upon enzymatic decomposition. The test was conducted at 25° C. to get a final reaction volume of 100 μL in a 96 black well plate. […] Briefly, the test compounds were dissolved in dimethyl sulfoxide (DMSO) at a concentration of 20 mM and then subjected to serial dilution, thereby creating an 8 point curve. As for the control group, a 6 point curve created by serial dilution of Talabostat in the same buffer solution was used. Fluorescence intensity was measured using a microplate reader (Flexstation3, Molecular Devices) under the wavelength condition exciting at 380 nm and reading the emission at 460 nm. The inhibitory effect of the test compounds was measured as a decrease (%) in the signal rate as compared to the control group without any inhibitor. Data was fixed to a logistic model with four variables and IC50 value was calculated using GraphPad Prism program. Recombinant human FAP (R&D systems) was diluted with 50 mM tris (pH 7.5) buffer comprising 1 M of sodium chloride and 1 mg/ml of bovine serum albumin (BSA) to be 10 ng per final reaction. The test compounds were subjected to serial dilution in a buffer under the condition containing up to 0.1% of DMSO. Z-Gly-Pro-AMC (Bachem) was used as a substrate. By dissolving in DMSO and then diluting in the same buffer, the substrate was added to be […] per final reaction.

The mark [3] stands for this setting: 25° C., Z-Gly-Pro-AMC substrate.
[4] abbreviates: recombinant human FAP, substrate Z-Gly-Pro-AMC.

Chain of DPP4 (P27487 whole entry): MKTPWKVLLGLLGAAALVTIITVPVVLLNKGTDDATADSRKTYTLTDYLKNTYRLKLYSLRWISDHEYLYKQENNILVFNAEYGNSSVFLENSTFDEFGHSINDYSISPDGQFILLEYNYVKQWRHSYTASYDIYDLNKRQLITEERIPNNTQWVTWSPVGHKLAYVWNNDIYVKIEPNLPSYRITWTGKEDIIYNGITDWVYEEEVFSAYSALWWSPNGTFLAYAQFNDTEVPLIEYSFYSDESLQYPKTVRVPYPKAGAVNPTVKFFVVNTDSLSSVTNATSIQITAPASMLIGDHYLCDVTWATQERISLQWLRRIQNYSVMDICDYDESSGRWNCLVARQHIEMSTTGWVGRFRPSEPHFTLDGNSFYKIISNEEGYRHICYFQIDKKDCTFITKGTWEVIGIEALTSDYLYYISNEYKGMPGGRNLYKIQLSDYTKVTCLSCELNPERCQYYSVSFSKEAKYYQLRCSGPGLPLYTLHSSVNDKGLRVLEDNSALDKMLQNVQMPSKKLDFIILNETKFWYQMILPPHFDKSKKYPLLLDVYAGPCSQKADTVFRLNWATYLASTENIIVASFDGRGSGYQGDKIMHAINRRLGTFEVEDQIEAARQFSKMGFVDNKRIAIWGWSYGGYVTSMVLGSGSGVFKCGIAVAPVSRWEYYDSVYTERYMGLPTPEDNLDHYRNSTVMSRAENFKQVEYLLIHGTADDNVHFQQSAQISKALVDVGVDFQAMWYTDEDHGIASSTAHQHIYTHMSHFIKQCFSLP

As a reminder, the IC50 is the point on the concentration scale where inhibition reaches its midpoint. Take `N#C[C@@H]1C[C@@H]2C[C@@H]2N1C(=O)CN1CCC(Nc2ccnc3ccccc23)CC1` [Example 112, (1S,3S,5S)-2-(2-(4-(quinolin-4-ylamino)piperidin-1-yl)acetyl)-2-azabicyclo[3.1.0]hexane-3-carbonitrile]: the “hDPP4 inhibition % at 1 μM” value in assay [1] is given as “No inhibition**”. In assay [2] (setting [3]), the concentration for half-maximal inhibition (IC50) came out at 18.8 nM.
Turning to `CN(c1ccc2ccccc2n1)C1CCN(CC(=O)N2CCC[C@H]2C#N)CC1` [Example 307, (2S)-1-[2-[4-[methyl(2-quinolyl)amino]-1-piperidyl]acetyl]pyrrolidine-2-carbonitrile], the IC50 in assay [1] is more than 10000 nM; in assay [2] (setting [4]), 47.1 nM.
What is called inhibition is the share of the control response that was lost under treatment. `N#C[C@@H]1CCCN1C(=O)CN1CCC(Nc2cncc3ccoc23)CC1` [Example 116, (S)-1-(2-(4-(furo[3,2-c]pyridin-7-ylamino)piperidin-1-yl)acetyl)pyrrolidine-2-carbonitrile]: the “hDPP4 inhibition % at 1 μM” value in assay [1] was “No inhibition**”. Also, in assay [2], the inhibition at 1 µM was found to be 82.4%.
Turning to `N#C[C@@H]1CCCN1C(=O)CN1CC[C@H](Oc2ccnc3cc(C(F)(F)F)ccc23)C1` [Example 94, (S)-1-(2-((S)-3-((7-(trifluoromethyl)quinolin-4-yl)oxy)pyrrolidin-1-yl)acetyl)pyrrolidine-2-carbonitrile], in assay [1], the inhibition at 1 µM is 6.9%. The IC50 in assay [2] (setting [3]) came out at 63.3 nM.
On to `N#C[C@@H]1CCCN1C(=O)CN1CC[C@H](NC(=O)c2ccc3ccccc3n2)C1` [Example 33, N—((S)-1-(2-((S)-2-cyanopyrrolidin-1-yl)-2-oxoethyl)pyrrolidin-3-yl)quinoline-2-carboxamide], for which the “hDPP4 inhibition % at 1 μM” value in assay [1] was “No inhibition**”. In assay [2], the inhibition at 1 µM stood at 66.1%.
Regarding `N#C[C@@H]1CCCN1C(=O)CN1CC[C@H](Oc2nccc3scc(Br)c23)C1` [Example 70, (S)-1-(2-((S)-3-((3-bromothieno[3,2-c]pyridin-4-yl)oxy)pyrrolidin-1-yl)acetyl)pyrrolidine-2-carbonitrile], the inhibition at 1 µM in assay [1] turned out to be 22.6%. For the same compound, the IC50 in assay [2] (setting [3]) is 31.9 nM.
In the case of `N#C[C@@H]1CCCN1C(=O)CN1CC[C@H](Oc2cc(-c3ccc(Br)cc3)no2)C1` [Example 102, (S)-1-(2-((S)-3-((3-(4-bromophenyl)isoxazol-5-yl)oxy)pyrrolidin-1-yl)acetyl)pyrrolidine-2-carbonitrile], the inhibition at 1 µM in assay [1] was 6.2%; in assay [2], 52.4%.
For `COc1cccc2c(C(=O)N[C@H]3CCN(CC(=O)N4CCC[C@H]4C#N)C3)coc12` [Example 47, N—((S)-1-(2-((S)-2-cyanopyrrolidin-1-yl)-2-oxoethyl)pyrrolidin-3-yl)-7-methoxybenzofuran-3-carboxamide], the inhibition at 1 µM in assay [1] was 3.7%. For the same compound, the IC50 in assay [2] (setting [3]) amounted to 18.8 nM.
In the case of `N#C[C@@H]1CCCN1C(=O)CN1CC[C@H](Oc2ccccc2-c2cc[nH]n2)C1` [Example 72, (S)-1-(2-((S)-3-(2-(1H-pyrazol-3-yl)phenoxy)pyrrolidin-1-yl)acetyl)pyrrolidine-2-carbonitrile], the inhibition at 1 µM in assay [1] is 0.8%. Besides, the IC50 in assay [2] (setting [3]) worked out at 101 nM.
On the same counts, the results for `N#C[C@@H]1CCCN1C(=O)CN1CC[C@H](NC(=O)c2cccc3occc23)C1` [Example 55, N—((S)-1-(2-((S)-2-cyanopyrrolidin-1-yl)-2-oxoethyl)pyrrolidin-3-yl)benzofuran-4-carboxamide] are 1.1% and 20 nM.
Take `CN(c1cccc2cnccc12)C1CCN(CC(=O)N2C[C@@H](F)C[C@H]2C#N)CC1` [Example 318, (2S,4S)-4-fluoro-1-[2-[4-[5-isoquinolyl(methyl)amino]-1-piperidyl]acetyl]pyrrolidine-2-carbonitrile]: the IC50 in assay [1] is more than 10000 nM; in assay [2] (setting [4]), 18.2 nM.
Take `N#C[C@@H]1CCCN1C(=O)CN1CC[C@@H](Nc2cccc3ccsc23)C1` [Example 25, (S)-1-(2-((R)-3-(benzo[b]thiophen-7-ylamino)pyrrolidin-1-yl)acetyl)pyrrolidine-2-carbonitrile]: the inhibition at 1 µM in assay [1] amounted to 2.9%. In addition, the 50% inhibitory concentration (IC50) in assay [2] (setting [3]) amounted to 57.6 nM.
Consider `N#C[C@@H]1CCCN1C(=O)CN1CC[C@H](Oc2cccc3c2CCC(=O)N3)C1` [Example 76, (S)-1-(2-((S)-3-((2-oxo-1,2,3,4-tetrahydroquinolin-5-yl)oxy)pyrrolidin-1-yl)acetyl)pyrrolidine-2-carbonitrile], for which, in assay [1], the “hDPP4 inhibition % at 1 μM” value is listed as “No inhibition**”. Besides, in assay [2] (setting [3]), the concentration for half-maximal inhibition (IC50) was 53.6 nM.
For `Cc1ccc2c(C(=O)N[C@H]3CCN(CC(=O)N4CCC[C@H]4C#N)C3)coc2c1` [Example 53, N—((S)-1-(2-((S)-2-cyanopyrrolidin-1-yl)-2-oxoethyl)pyrrolidin-3-yl)-6-methylbenzofuran-3-carboxamide], in assay [1], the inhibition at 1 µM was 1.3%. Also, the half-inhibitory concentration (IC50) in assay [2] (setting [3]) turned out to be 17.7 nM.
In the case of `N#C[C@@H]1CCCN1C(=O)CN1CC[C@H](NC(=O)c2coc3c(F)cccc23)C1` [Example 50, N—((S)-1-(2-((S)-2-cyanopyrrolidin-1-yl)-2-oxoethyl)pyrrolidin-3-yl)-7-fluorobenzofuran-3-carboxamide], the “hDPP4 inhibition % at 1 μM” value in assay [1] is listed as “No inhibition**”. Moreover, the IC50 in assay [2] (setting [3]) came to 16.4 nM.
As for `N#C[C@@H]1CCCN1C(=O)CN1CC[C@H](Oc2cccc(-c3ccccc3)c2)C1` [Example 82, (S)-1-(2-((S)-3-([1,1′-biphenyl]-3-yloxy)pyrrolidin-1-yl)acetyl)pyrrolidine-2-carbonitrile], the inhibition at 1 µM in assay [1] came out at 6.5%; in assay [2], 72.6%.
For `N#C[C@@H]1CCCN1C(=O)CN1CC[C@H](Oc2ccc(C(=O)c3ccccc3)cc2)C1` [Example 92, (S)-1-(2-((S)-3-(4-benzoylphenoxy)pyrrolidin-1-yl)acetyl)pyrrolidine-2-carbonitrile], in that order: 10.2% and 56.4%.
With `N#C[C@@H]1CCCN1C(=O)CN1CC[C@H](Oc2ccccc2-c2nc3ccccc3o2)C1` [Example 97, (S)-1-(2-((S)-3-(2-(benzo[d]oxazol-2-yl)phenoxy)pyrrolidin-1-yl)acetyl)pyrrolidine-2-carbonitrile], the figures for the inhibition at 1 µM in assay [1] and in assay [2] were 8.3% and 36.3%, respectively.
